Data set [1] can be described thus: Stability constants of the complexes formed with Gd(III) by pH-potentiometry. It is filed as physicochemical. Conditions: I=0.1M TMACI, t=25° C.; for logKGdL: stability constant. An excerpt:
(§1) Protonation constants of the two ligands, DPTPA and EPTPA-Bz-NO2, and stability constants of their complexes formed with Gd(III) and some endogenously available cations have been determined by pH-potentiometry. The selectivity of the ligand for Gd(III) over Zn(II) (log(KGdL/KZnL)) is especially important as it directly relates to the safety of the Gd(III) contrast agent.

Data set [2] can be described thus: Stability constants of the Ca complexes by pH-potentiometry. In kind it is physicochemical. Particulars: for logKCaL: stability constant.
Text: as §1

Data set [3] in a line: Stability constants of the complexes formed with Zn(II) by pH-potentiometry. In kind it is physicochemical. Conditions: I=0.1M TMACI, t=25° C.; for logKZnL: stability constant.
Text: as §1

Data set [4] in a line: Protonation constants of the ligands by pH-potentiometry. It is filed as physicochemical. Conditions: protonation constant of the ligand; I=0.1M TMACI, t=25° C.
Text: as §1

A short description of data set [5]: Simultaneous analysis of 17O NMR, EPR and NMRD data. Particulars: for ΔH^‡ / ΔS^‡: water exchange; for kex^298: water exchange rate. An excerpt:
The ^17O NMR, NMRD and EPR experimental data (points) and the fitted curves (lines) as obtained in a simultaneous analysis, according to the method of Powell et al., J. Am. Chem. Soc.

The conditions of data set [6]: IUPAC Stability constants. Academic Software and K. J. Powell, 1999; cited from earlier work.
The conditions of data set [7]: IUPAC Stability constants. Academic Software and K. J. Powell, 1999; cited from earlier work. The source holds these as a separate data set.
The conditions of data set [8]: IUPAC Stability constants. Academic Software and K. J. Powell, 1999; cited from earlier work. The source holds these as a separate data set.
The conditions of data set [9]: cited from earlier work.

The text below walks through data of US20040258620A1, “(Ethylene)-( propylene)-triaminepentaacetic acid derivatives, process for their production, and their use for the production of pharmaceutical agents” (priority 2001, published 2004).

Where two headings read alike, the source gives them in different places.

In data set [1], `O=C(O)CN(CCCN(CC(=O)O)CC(=O)O)CCCN(CC(=O)O)CC(=O)O` [DPTPA] gave a logKGdH2L of 5.43, a logKGdHL of 6.30 and a logKGdL of 13.00. Further, in [2], the logKCaH2L amounted to 6.01, the logKCaHL came to 8.63 and the logKCaL was 6.01. In data set [3], this molecule gave a logKZnH2L of 3.17, a logKZnHL of 8.06 and a logKZnL of 15.60. In data set [4], the pKa1 is listed as 10.91, the pKa2 is on record as 9.29, the pKa3 is reported as 7.07 and the pKa4 came out at 2.76. The pKa5 in data set [4] is 2.19.
Take `O=C(O)CN(CCN(CC(=O)O)CC(=O)O)CCN(CC(=O)O)CC(=O)O` [DTPA, diethylenetriamine-pentaacetic acid, reference compound]: in data set [5] (Gd(III) complex of the ligand), the A/ħ was −3.8 ± 0.2 10^6 rad s^−1, the Ev was found to be 0.382 ± 0.43 kcal/mol, the “Δ^2” value is reported as 0.46 ± 0.02 10^20 s^−1 and the τr turned out to be 58 ± 11 ps. Moreover, in data set [5] (Gd(III) complex of the ligand), the τy worked out at 25 ± 1 ps, the “ΔH^‡” value was 12.3 ± 0.335 kcal/mol, the “ΔS^‡” value stood at 53.0 ± 4.7 J mol^−1K^−1 and the “kex^298” value is listed as 3.3 ± 0.2 10^6 s^−1. Also, the Er in data set [5] (not told) is 4.13 ± 0.19 kcal/mol. Also, in data set [6], the logKGdHL was 1.80 and the logKGdL is given as 22.50. For the same molecule, in [7], the logKZnHL is 3.0 and the logKZnL was 18.3. Besides, in data set [8], the logKCaHL is reported as 6.42 and the logKCaL is reported as 10.89.
`O=C(O)CN(CCCN(CC(=O)O)CC(Cc1ccc([N+](=O)[O-])cc1)N(CC(=O)O)CC(=O)O)CC(=O)O` (stereo not shown) [EPTPA-bz-NO2]: in data set [1], the logKGdH2L is given as 2.40, the logKGdHL is reported as 3.35 and the logKGdL came out at 19.31. In [5] (Gd(III) complex of the ligand), the A/ħ is listed as −3.5 ± 0.2 10^6 rad s^−1, the Er was 4.76 ± 0.406 kcal/mol, the “Δ^2” value is on record as 0.37 ± 0.03 10^20 s^−1 and the τr is recorded as 84.6 ± 6 ps. Moreover, in [5] (Gd(III) complex of the ligand), the τy turned out to be 20 ± 1 ps, the “ΔH^‡” value was 5.66 ± 0.43 kcal/mol, the “ΔS^‡” value was −9.2 ± 4.0 J mol^−1K^−1 and the “kex^298” value is on record as 146 ± 23 10^6 s^−1. In [2], this molecule came in with a logKCaHL of 7.04 and a logKCaL of 10.02. In data set [3], this molecule yielded a logKZnH2L of 2.53, a logKZnHL of 8.99 and a logKZnL of 16.01. Also, in [4], the pKa1 was determined as 10.86, the pKa2 stood at 8.94, the pKa3 is reported as 4.70 and the pKa4 came out at 3.25. This molecule returned a pKa5 in data set [4] of 2.51.
With `O=C([O-])CN(CCCN(CC(=O)[O-])CC(=O)[O-])CCN(CC(=O)[O-])CC(=O)[O-].[Gd+3]` [Gd(III)(EPTPA), Gd(III) complex of 3,6,10-tri(carboxymethly)-3,6,10-triazadodecanedioic acid], in [9] (determined by potentiometry (Wang et al, Dalton, 1998)), the “thermodynamic stability constant, logo” value is on record as 22.77.
`O=C([O-])CN1CCCN(CC(=O)[O-])CCN(CC(=O)[O-])CCN(CC(=O)[O-])CC1.[Gd+3]` [Gd(III)(TRITA)]: the “thermodynamic stability constant, logβ” value in data set [9] (determined by potentiometry [Clarke and Martell, Inorg. Chim, Acta, 1991]) is given as 19.2.
